From US20100267561A1, “HERBICIDAL PYRIDAZINONE DERIVATIVES” (priority 2007, published 2010)

Tests used:
Format in all cases: in vivo
[1] = system: guineagrass (Panicum maximum); experiment: Test E pre-/postemergence plant response; conditions: scale 0 to 100
In short: (§1)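 Scores are visual estimates of control on a 0 to 100 scale, made against untreated plants 14 to 21 days after treatment in the greenhouse. Application was preemergence to sown seeds or postemergence to 2–18 cm plants (1- to 4-leaf stage), using a surfactant-containing non-phytotoxic solvent formulation.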

[2] = system: common purslane (Portulaca oleracea); experiment: Test E pre-/postemergence plant response; conditions: scale 0 to 100
In short: as §1

[3] = system: common groundsel (Senecio vulgaris); experiment: Test E pre-/postemergence plant response; conditions: Postemergence, scale 0 to 100
In short: as §1

[4] = system: dallisgrass (Paspalum dilatatum); experiment: Test E pre-/postemergence plant response; conditions: scale 0 to 100
In short: as §1

[5] = system: barnyardgrass (Echinochloa crus-galli); experiment: Test E pre-/postemergence plant response; conditions: scale 0 to 100
In short: as §1

[6] = system: black mustard (Brassica nigra); experiment: Test E pre-/postemergence plant response; conditions: scale 0 to 100
In short: as §1

[7] = system: goosegrass (Eleusine indica); experiment: Test E pre-/postemergence plant response; conditions: scale 0 to 100
In short: as §1

[8] = system: southern (S.) sandbur (Cenchrus echinatus); experiment: Test E pre-/postemergence plant response; conditions: scale 0 to 100
In short: as §1

[9] = system: canarygrass (Phalaris minor); experiment: Test A pre-/postemergence plant response
In short: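 Seeds sown in loam–sand blend; test chemicals in non-phytotoxic solvent with surfactant applied preemergence as directed soil spray and, concurrently, postemergence to plants 2–10 cm tall at one- to two-leaf stage. Greenhouse ~10 days, then visual injury rating vs untreated controls on 0–100 scale (0 = no effect, 100 = complete control).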

[10] = Postemergence, 31 g ai/ha, 0 to 100 scale (0 no effect, 100 complete control)
[11] = Postemergence, 125 g ai/ha, 0 to 100 scale, 0 no effect, 100 complete control
[12] = Preemergence, 31 g ai/ha, 0 to 100 scale, 0 is no effect, 100 is complete control
[13] = Preemergence, 125 g ai/ha, 0 to 100 scale (0 no effect, 100 complete control)

Cn1ncc(O)c(-c2nn(-c3ccc(Cl)cc3)cc2Br)c1=O [Compound 31]
Plant response rating, Guineagrass ([1]; 16 g ai/ha, Preemergence): 90
Plant response rating, Guineagrass ([1]; 31 g ai/ha, Preemergence): 100
Plant response rating, Guineagrass ([1]; 62 g ai/ha, Preemergence): 100
Plant response rating, Guineagrass ([1]; Postemergence, 8 g ai/ha): 75
Plant response rating, Guineagrass ([1]; Postemergence, 16 g ai/ha): 80
Plant response rating, Guineagrass ([1]; Postemergence, 31 g ai/ha): 85
Plant response rating, Guineagrass ([1]; Postemergence, 62 g ai/ha): 90
Plant response rating, Purslane ([2]; 16 g ai/ha, Preemergence): 0
Plant response rating, Purslane ([2]; 31 g ai/ha, Preemergence): 0
Plant response rating, Purslane ([2]; 62 g ai/ha, Preemergence): 0
Plant response rating, Purslane ([2]; Postemergence, 8 g ai/ha): 0
Plant response rating, Purslane ([2]; Postemergence, 16 g ai/ha): 0
Plant response rating, Purslane ([2]; Postemergence, 31 g ai/ha): 0
Plant response rating, Purslane ([2]; Postemergence, 62 g ai/ha): 0
Plant response rating, Groundsel ([3]; 8 g ai/ha): 0
Plant response rating, Groundsel ([3]; 16 g ai/ha): 0
Plant response rating, Dallisgrass ([4]; 8 g ai/ha, Preemergence): 0
Plant response rating, Dallisgrass ([4]; 16 g ai/ha, Preemergence): 15
Plant response rating, Dallisgrass ([4]; 31 g ai/ha, Preemergence): 75
Plant response rating, Dallisgrass ([4]; 62 g ai/ha, Preemergence): 98
Plant response rating, Dallisgrass ([4]; Postemergence, 8 g ai/ha): 35
Plant response rating, Dallisgrass ([4]; Postemergence, 16 g ai/ha): 40
Plant response rating, Dallisgrass ([4]; Postemergence, 31 g ai/ha): 60
Plant response rating, Dallisgrass ([4]; Postemergence, 62 g ai/ha): 70
Plant response rating, Barnyardgrass ([5]; 8 g ai/ha, Preemergence): 0
Plant response rating, Barnyardgrass ([5]; 16 g ai/ha, Preemergence): 15
Plant response rating, Barnyardgrass ([5]; 31 g ai/ha, Preemergence): 75
Plant response rating, Barnyardgrass ([5]; 62 g ai/ha, Preemergence): 90
Plant response rating, Barnyardgrass ([5]; Postemergence, 8 g ai/ha): 35
Plant response rating, Barnyardgrass ([5]; Postemergence, 16 g ai/ha): 70
Plant response rating, Barnyardgrass ([5]; Postemergence, 31 g ai/ha): 75
Plant response rating, Barnyardgrass ([5]; Postemergence, 62 g ai/ha): 100
Plant response rating, Mustard, Black ([6]; 8 g ai/ha, Preemergence): 0
Plant response rating, Mustard, Black ([6]; 16 g ai/ha, Preemergence): 0
Plant response rating, Mustard, Black ([6]; 31 g ai/ha, Preemergence): 0
Plant response rating, Mustard, Black ([6]; 62 g ai/ha, Preemergence): 0
Plant response rating, Mustard, Black ([6]; Postemergence, 8 g ai/ha): 0
Plant response rating, Mustard, Black ([6]; Postemergence, 16 g ai/ha): 0
Plant response rating, Mustard, Black ([6]; Postemergence, 31 g ai/ha): 0
Plant response rating, Mustard, Black ([6]; Postemergence, 62 g ai/ha): 0
Plant response rating, Goosegrass ([7]; 8 g ai/ha, Preemergence): 20
Plant response rating, Goosegrass ([7]; 16 g ai/ha, Preemergence): 35
Plant response rating, Goosegrass ([7]; 31 g ai/ha, Preemergence): 100
Plant response rating, Goosegrass ([7]; 62 g ai/ha, Preemergence): 100
Plant response rating, Goosegrass ([7]; Postemergence, 8 g ai/ha): 35
Plant response rating, Goosegrass ([7]; Postemergence, 16 g ai/ha): 50
Plant response rating, Goosegrass ([7]; Postemergence, 31 g ai/ha): 70
Plant response rating, Goosegrass ([7]; Postemergence, 62 g ai/ha): 75
Plant response rating, Sandbur, S. ([8]; 16 g ai/ha, Preemergence): 15
Plant response rating, Sandbur, S. ([8]; 31 g ai/ha, Preemergence): 20
Plant response rating, Sandbur, S. ([8]; 62 g ai/ha, Preemergence): 90
Plant response rating, Sandbur, S. ([8]; Postemergence, 8 g ai/ha): 0
Plant response rating, Sandbur, S. ([8]; Postemergence, 16 g ai/ha): 70
Plant response rating, Sandbur, S. ([8]; Postemergence, 31 g ai/ha): 75
Plant response rating, Sandbur, S. ([8]; Postemergence, 62 g ai/ha): 75

CCc1cc(-c2ccc(Cl)cc2)nn1-c1c(OS(C)(=O)=O)cnn(C)c1=O [Compound 39]
Plant response rating, Guineagrass ([1]; 16 g ai/ha, Preemergence): 100
Plant response rating, Guineagrass ([1]; 31 g ai/ha, Preemergence): 100
Plant response rating, Guineagrass ([1]; 62 g ai/ha, Preemergence): 100
Plant response rating, Guineagrass ([1]; Postemergence, 8 g ai/ha): 80
Plant response rating, Guineagrass ([1]; Postemergence, 16 g ai/ha): 80
Plant response rating, Guineagrass ([1]; Postemergence, 31 g ai/ha): 90
Plant response rating, Guineagrass ([1]; Postemergence, 62 g ai/ha): 95
Plant response rating, Purslane ([2]; 16 g ai/ha, Preemergence): 0
Plant response rating, Purslane ([2]; 31 g ai/ha, Preemergence): 0
Plant response rating, Purslane ([2]; 62 g ai/ha, Preemergence): 0
Plant response rating, Purslane ([2]; Postemergence, 8 g ai/ha): 0
Plant response rating, Purslane ([2]; Postemergence, 16 g ai/ha): 0
Plant response rating, Purslane ([2]; Postemergence, 31 g ai/ha): 0
Plant response rating, Purslane ([2]; Postemergence, 62 g ai/ha): 0
Plant response rating, Groundsel ([3]; 31 g ai/ha): 0
Plant response rating, Groundsel ([3]; 62 g ai/ha): 0
Plant response rating, Dallisgrass ([4]; 8 g ai/ha, Preemergence): 35
Plant response rating, Dallisgrass ([4]; 16 g ai/ha, Preemergence): 98
Plant response rating, Dallisgrass ([4]; 31 g ai/ha, Preemergence): 98
Plant response rating, Dallisgrass ([4]; 62 g ai/ha, Preemergence): 100
Plant response rating, Dallisgrass ([4]; Postemergence, 8 g ai/ha): 60
Plant response rating, Dallisgrass ([4]; Postemergence, 16 g ai/ha): 70
Plant response rating, Dallisgrass ([4]; Postemergence, 31 g ai/ha): 75
Plant response rating, Dallisgrass ([4]; Postemergence, 62 g ai/ha): 75
Plant response rating, Barnyardgrass ([5]; 8 g ai/ha, Preemergence): 90
Plant response rating, Barnyardgrass ([5]; 16 g ai/ha, Preemergence): 90
Plant response rating, Barnyardgrass ([5]; 31 g ai/ha, Preemergence): 100
Plant response rating, Barnyardgrass ([5]; 62 g ai/ha, Preemergence): 100
Plant response rating, Barnyardgrass ([5]; Postemergence, 8 g ai/ha): 100
Plant response rating, Barnyardgrass ([5]; Postemergence, 16 g ai/ha): 100
Plant response rating, Barnyardgrass ([5]; Postemergence, 31 g ai/ha): 100
Plant response rating, Barnyardgrass ([5]; Postemergence, 62 g ai/ha): 100
Plant response rating, Mustard, Black ([6]; 8 g ai/ha, Preemergence): 0
Plant response rating, Mustard, Black ([6]; 16 g ai/ha, Preemergence): 0
Plant response rating, Mustard, Black ([6]; 31 g ai/ha, Preemergence): 0
Plant response rating, Mustard, Black ([6]; 62 g ai/ha, Preemergence): 0
Plant response rating, Mustard, Black ([6]; Postemergence, 8 g ai/ha): 0
Plant response rating, Mustard, Black ([6]; Postemergence, 16 g ai/ha): 0
Plant response rating, Mustard, Black ([6]; Postemergence, 31 g ai/ha): 0
Plant response rating, Mustard, Black ([6]; Postemergence, 62 g ai/ha): 0
Plant response rating, Goosegrass ([7]; 8 g ai/ha, Preemergence): 75
Plant response rating, Goosegrass ([7]; 16 g ai/ha, Preemergence): 80
Plant response rating, Goosegrass ([7]; 31 g ai/ha, Preemergence): 100
Plant response rating, Goosegrass ([7]; 62 g ai/ha, Preemergence): 100
Plant response rating, Goosegrass ([7]; Postemergence, 8 g ai/ha): 35
Plant response rating, Goosegrass ([7]; Postemergence, 16 g ai/ha): 70
Plant response rating, Goosegrass ([7]; Postemergence, 31 g ai/ha): 80
Plant response rating, Goosegrass ([7]; Postemergence, 62 g ai/ha): 95
Plant response rating, Sandbur, S. ([8]; 16 g ai/ha, Preemergence): 90
Plant response rating, Sandbur, S. ([8]; 31 g ai/ha, Preemergence): 100
Plant response rating, Sandbur, S. ([8]; 62 g ai/ha, Preemergence): 100
Plant response rating, Sandbur, S. ([8]; Postemergence, 8 g ai/ha): 75
Plant response rating, Sandbur, S. ([8]; Postemergence, 16 g ai/ha): 85
Plant response rating, Sandbur, S. ([8]; Postemergence, 31 g ai/ha): 95
Plant response rating, Sandbur, S. ([8]; Postemergence, 62 g ai/ha): 100

Cc1cc(-c2ccc(Br)cc2)nn1-c1c(O)cn[nH]c1=O [Compound 78, 4-[3-(4-bromophenyl)-5-methyl-1H-pyrazol-1-yl]-5-hydroxy-3(2H)-pyridazinone]
Plant response rating, Canarygrass [9, 10]: 40
Plant response rating, Canarygrass [9, 11]: 70
Plant response rating, Canarygrass [9, 12]: 0
Plant response rating, Canarygrass [9, 13]: 100

Cc1cc(-c2ccc(Br)cc2)nn1-c1c(OC(=O)C2CC2)cnn(C(=O)C2CC2)c1=O [Compound 80, 5-[3-(4-bromophenyl)-5-methyl-1H-pyrazol-1-yl]-1-(cyclopropylcarbonyl)-1,6-dihydro-6-oxo-4-pyridazinyl cyclopropanecarboxylate]
Plant response rating, Canarygrass [9, 10]: 40
Plant response rating, Canarygrass [9, 11]: 100
Plant response rating, Canarygrass [9, 12]: 60
Plant response rating, Canarygrass [9, 13]: 100

Cc1nn(C)c(=O)c(-n2nc(-c3ccc(Br)cc3)cc2C)c1O [Compound 81]
Plant response rating, Canarygrass [9, 10]: 60
Plant response rating, Canarygrass [9, 11]: 100
Plant response rating, Canarygrass [9, 12]: 50
Plant response rating, Canarygrass [9, 13]: 90
